Source: publication PMC11831560, “Development of the Pyrido[2,3-d]pyrimidin-7(8H)-one Scaffold toward Potent and Selective NUAK1 Inhibitors” (ACS Medicinal Chemistry Letters, 2025)
“And” between values parts separate entries of the source, which are not always exact repeats. Identical values can stand only once.

Key:
Assay in all cases: Kinase panel radiometric filter binding (33P-ATP)
Type in all cases: biochemical
NUAK1 = molecular target: T1, NUAK1 (Homo sapiens, UniProt O60285); set-up: purchased MRC PPU; dose or concentration left out as unconfirmed
T1 sequence (O60285 1-661): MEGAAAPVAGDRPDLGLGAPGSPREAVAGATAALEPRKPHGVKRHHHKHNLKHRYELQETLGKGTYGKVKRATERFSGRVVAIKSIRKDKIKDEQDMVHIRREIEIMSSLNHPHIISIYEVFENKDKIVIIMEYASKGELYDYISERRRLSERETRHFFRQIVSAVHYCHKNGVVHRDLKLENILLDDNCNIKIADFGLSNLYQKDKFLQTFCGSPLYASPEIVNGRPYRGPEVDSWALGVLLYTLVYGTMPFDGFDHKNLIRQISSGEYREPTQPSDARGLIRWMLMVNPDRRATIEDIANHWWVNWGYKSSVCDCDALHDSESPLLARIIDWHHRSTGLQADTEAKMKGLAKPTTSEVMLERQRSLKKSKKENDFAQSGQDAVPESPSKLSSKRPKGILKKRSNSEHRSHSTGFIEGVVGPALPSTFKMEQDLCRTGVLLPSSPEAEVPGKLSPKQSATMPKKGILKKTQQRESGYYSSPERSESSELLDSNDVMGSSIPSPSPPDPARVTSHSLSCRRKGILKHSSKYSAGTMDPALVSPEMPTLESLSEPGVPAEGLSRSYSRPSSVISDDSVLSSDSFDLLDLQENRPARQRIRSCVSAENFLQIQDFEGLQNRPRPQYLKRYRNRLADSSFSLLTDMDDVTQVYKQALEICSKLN
Protocol: (§1) Table S4: AMPKA kinase activity data (ADP-Glo assay)
(§2) Compound pIC50 (Fold selectivity
(§3) Table S5. Kinase selectivity screening for 9 and 24 at 1 µM against a general kinase panel of 140 targets
(§4) in radiometric filter binding assay using 33P-γ−ATP at the MRC PPU International Centre for Kinase
(§5) Profiling, University of Dundee. pIC50 values were determined for compounds with <20% activity
(§6) Kinase activity s.d. pIC50 activity s.d. pIC50

VEG-FR = molecular target: T2, VEG-FR (Homo sapiens, UniProt P17948); set-up: % activity remaining: dose or concentration left out as unconfirmed; details: for % activity remaining: VEG-FR
T2 sequence (P17948 784-1338 limits assumed): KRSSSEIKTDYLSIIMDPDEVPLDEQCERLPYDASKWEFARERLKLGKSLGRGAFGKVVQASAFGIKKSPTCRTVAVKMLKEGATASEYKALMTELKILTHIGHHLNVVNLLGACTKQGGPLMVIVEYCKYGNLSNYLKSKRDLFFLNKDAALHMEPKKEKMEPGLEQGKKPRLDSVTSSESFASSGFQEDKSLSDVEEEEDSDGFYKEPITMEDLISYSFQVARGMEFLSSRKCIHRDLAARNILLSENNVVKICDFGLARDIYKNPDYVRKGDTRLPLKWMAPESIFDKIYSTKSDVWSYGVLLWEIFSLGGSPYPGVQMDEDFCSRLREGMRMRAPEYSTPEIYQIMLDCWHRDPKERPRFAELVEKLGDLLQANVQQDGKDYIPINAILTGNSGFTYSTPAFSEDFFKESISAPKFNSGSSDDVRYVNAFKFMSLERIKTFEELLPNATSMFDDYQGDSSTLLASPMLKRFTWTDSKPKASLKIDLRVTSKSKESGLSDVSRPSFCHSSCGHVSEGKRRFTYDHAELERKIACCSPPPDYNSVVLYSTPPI
Protocol: as §1, §2, §3, §4, §5, §6

SIK2 = SIK2 (Homo sapiens, UniProt Q9H0K1); set-up: % activity remaining: dose or concentration left out as unconfirmed; details: for % activity remaining: SIK2
Protocol: as §1, §2, §3, §4, §5, §6

TrkA = TrkA (Homo sapiens, UniProt P04629); set-up: % activity remaining: dose or concentration left out as unconfirmed; details: for % activity remaining: TrkA
Protocol: as §1, §2, §3, §4, §5, §6

YES1 = YES1 (Homo sapiens, UniProt P07947); set-up: % activity remaining: dose or concentration left out as unconfirmed; details: for % activity remaining: YES1
Protocol: as §1, §2, §3, §4, §5, §6

MARK1 = molecular target: T3, MARK1 (Homo sapiens, UniProt Q9P0L2); set-up: % activity remaining: dose or concentration left out as unconfirmed; details: for % activity remaining: MARK1
T3 construct: purchased MRC PPU
Protocol: as §1, §2, §3, §4, §5, §6

TSSK1 = TSSK1 (Homo sapiens, UniProt Q9BXA7); set-up: dose or concentration left out as unconfirmed
Protocol: as §1, §2, §3, §4, §5, §6

p38b MAPK = p38b MAPK (Homo sapiens, UniProt Q15759); set-up: dose or concentration left out as unconfirmed
Protocol: as §1, §2, §3, §4, §5, §6

PAK5 = PAK5 (Homo sapiens, UniProt Q9P286); set-up: dose or concentration left out as unconfirmed
Protocol: as §1, §2, §3, §4, §5, §6

PDGFRA = PDGFRA (Homo sapiens, UniProt P16234); set-up: dose or concentration left out as unconfirmed
Protocol: as §1, §2, §3, §4, §5, §6

RSK1 = RSK1 (Homo sapiens, UniProt Q15418); set-up: dose or concentration left out as unconfirmed
Protocol: as §1, §2, §3, §4, §5, §6

TTK = TTK (Homo sapiens, UniProt P33981); set-up: dose or concentration left out as unconfirmed
Protocol: as §1, §2, §3, §4, §5, §6

CK1γ2 = CK1γ2 (Homo sapiens, UniProt P78368); set-up: dose or concentration left out as unconfirmed
Protocol: as §1, §2, §3, §4, §5, §6

SGK1 = SGK1 (Homo sapiens, UniProt O00141); set-up: dose or concentration left out as unconfirmed
Protocol: as §1, §2, §3, §4, §5, §6

SRPK1 = SRPK1 (Homo sapiens, UniProt Q96SB4); set-up: dose or concentration left out as unconfirmed
Protocol: as §1, §2, §3, §4, §5, §6

PIM2 = PIM2 (Homo sapiens, UniProt Q9P1W9); set-up: dose or concentration left out as unconfirmed
Protocol: as §1, §2, §3, §4, §5, §6

ASK1 = ASK1 (Homo sapiens, UniProt Q99683); set-up: dose or concentration left out as unconfirmed
Protocol: as §1, §2, §3, §4, §5, §6

IRAK4 = IRAK4 (Homo sapiens, UniProt Q9NWZ3); set-up: dose or concentration left out as unconfirmed
Protocol: as §1, §2, §3, §4, §5, §6

DYRK3 = DYRK3 (Homo sapiens, UniProt O43781); set-up: dose or concentration left out as unconfirmed
Protocol: as §1, §2, §3, §4, §5, §6

MKK6 = MKK6 (Homo sapiens, UniProt P52564); set-up: dose or concentration left out as unconfirmed
Protocol: as §1, §2, §3, §4, §5, §6

[1] = radiometric filter binding panel

Sequence of SIK2 (Q9H0K1 whole entry, species assumed): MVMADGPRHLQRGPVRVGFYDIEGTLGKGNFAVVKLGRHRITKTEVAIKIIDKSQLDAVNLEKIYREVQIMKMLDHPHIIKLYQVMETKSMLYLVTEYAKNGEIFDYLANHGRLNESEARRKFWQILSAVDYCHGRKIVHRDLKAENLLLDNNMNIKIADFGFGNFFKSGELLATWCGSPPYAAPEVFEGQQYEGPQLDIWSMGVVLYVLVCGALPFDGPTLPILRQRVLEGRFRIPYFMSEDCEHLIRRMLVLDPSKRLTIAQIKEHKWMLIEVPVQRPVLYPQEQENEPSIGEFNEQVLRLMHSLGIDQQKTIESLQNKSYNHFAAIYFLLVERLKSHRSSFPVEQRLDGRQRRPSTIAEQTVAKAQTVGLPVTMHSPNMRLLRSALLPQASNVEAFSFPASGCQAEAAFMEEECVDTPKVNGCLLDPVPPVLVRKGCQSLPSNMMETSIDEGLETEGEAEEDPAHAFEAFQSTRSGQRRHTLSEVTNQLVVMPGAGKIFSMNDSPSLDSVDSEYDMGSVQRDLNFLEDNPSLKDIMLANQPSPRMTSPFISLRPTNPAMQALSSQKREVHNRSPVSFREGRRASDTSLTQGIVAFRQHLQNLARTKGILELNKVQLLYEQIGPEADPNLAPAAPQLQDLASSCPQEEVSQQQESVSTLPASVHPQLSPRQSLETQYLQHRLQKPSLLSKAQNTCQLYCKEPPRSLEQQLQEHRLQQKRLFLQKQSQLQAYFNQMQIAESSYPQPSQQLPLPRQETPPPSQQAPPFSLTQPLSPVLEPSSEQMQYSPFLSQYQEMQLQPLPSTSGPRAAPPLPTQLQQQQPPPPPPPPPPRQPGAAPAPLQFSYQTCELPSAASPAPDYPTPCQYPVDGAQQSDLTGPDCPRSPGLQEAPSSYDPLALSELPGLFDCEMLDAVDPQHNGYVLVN
Sequence of TrkA (P04629 33-796, species assumed): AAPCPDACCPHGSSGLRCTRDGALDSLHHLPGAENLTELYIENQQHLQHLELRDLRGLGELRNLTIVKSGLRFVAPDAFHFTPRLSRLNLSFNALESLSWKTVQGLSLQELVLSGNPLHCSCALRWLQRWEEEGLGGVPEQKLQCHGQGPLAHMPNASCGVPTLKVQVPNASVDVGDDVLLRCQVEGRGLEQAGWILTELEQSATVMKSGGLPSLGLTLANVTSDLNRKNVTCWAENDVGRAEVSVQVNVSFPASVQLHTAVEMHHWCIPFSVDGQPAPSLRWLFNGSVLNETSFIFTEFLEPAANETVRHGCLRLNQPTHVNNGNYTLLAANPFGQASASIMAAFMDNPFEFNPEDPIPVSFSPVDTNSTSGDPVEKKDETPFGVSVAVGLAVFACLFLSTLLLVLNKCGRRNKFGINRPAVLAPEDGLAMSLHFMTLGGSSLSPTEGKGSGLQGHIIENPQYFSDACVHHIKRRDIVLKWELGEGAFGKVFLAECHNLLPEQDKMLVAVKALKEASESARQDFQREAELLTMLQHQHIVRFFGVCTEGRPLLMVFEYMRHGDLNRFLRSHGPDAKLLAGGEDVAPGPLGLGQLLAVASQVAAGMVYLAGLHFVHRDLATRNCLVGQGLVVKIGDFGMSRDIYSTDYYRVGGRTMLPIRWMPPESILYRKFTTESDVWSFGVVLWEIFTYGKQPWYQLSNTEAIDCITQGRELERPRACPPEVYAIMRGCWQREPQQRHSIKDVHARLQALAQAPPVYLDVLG
Sequence of YES1 (P07947 whole entry, species assumed): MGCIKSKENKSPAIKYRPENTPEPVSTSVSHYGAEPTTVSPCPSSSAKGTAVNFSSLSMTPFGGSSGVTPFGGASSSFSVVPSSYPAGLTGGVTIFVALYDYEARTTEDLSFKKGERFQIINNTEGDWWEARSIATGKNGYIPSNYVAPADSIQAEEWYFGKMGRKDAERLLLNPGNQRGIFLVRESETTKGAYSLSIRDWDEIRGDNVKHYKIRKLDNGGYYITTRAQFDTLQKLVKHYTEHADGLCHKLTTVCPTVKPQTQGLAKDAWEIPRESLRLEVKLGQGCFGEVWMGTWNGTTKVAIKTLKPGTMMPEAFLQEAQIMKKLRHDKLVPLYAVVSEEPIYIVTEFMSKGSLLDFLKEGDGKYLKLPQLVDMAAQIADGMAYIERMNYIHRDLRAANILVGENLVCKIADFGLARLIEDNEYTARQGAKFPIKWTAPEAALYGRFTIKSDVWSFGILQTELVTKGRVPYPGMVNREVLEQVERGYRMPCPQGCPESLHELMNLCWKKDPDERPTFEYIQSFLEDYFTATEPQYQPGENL
T3 sequence (Q9P0L2 whole entry): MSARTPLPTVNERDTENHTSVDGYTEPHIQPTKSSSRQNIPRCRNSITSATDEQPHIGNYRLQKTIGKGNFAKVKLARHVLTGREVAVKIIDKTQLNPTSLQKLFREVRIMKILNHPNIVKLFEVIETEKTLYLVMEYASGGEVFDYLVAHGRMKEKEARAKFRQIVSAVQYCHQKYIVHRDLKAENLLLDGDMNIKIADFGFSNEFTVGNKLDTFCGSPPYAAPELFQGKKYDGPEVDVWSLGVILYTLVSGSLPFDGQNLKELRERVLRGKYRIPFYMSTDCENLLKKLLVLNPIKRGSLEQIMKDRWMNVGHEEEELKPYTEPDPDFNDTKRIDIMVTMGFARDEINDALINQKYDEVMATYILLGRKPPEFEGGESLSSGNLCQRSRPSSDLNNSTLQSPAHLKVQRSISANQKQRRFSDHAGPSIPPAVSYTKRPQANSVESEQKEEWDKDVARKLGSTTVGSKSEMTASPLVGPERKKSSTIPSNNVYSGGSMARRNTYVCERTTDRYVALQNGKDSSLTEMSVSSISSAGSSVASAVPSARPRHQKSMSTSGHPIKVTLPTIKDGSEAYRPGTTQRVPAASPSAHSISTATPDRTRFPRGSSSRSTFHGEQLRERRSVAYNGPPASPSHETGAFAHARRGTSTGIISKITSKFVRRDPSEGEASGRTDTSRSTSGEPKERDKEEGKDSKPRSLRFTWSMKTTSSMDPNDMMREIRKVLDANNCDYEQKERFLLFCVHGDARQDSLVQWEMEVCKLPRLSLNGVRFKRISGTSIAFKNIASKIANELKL
Sequence of DYRK3 (O43781 whole entry): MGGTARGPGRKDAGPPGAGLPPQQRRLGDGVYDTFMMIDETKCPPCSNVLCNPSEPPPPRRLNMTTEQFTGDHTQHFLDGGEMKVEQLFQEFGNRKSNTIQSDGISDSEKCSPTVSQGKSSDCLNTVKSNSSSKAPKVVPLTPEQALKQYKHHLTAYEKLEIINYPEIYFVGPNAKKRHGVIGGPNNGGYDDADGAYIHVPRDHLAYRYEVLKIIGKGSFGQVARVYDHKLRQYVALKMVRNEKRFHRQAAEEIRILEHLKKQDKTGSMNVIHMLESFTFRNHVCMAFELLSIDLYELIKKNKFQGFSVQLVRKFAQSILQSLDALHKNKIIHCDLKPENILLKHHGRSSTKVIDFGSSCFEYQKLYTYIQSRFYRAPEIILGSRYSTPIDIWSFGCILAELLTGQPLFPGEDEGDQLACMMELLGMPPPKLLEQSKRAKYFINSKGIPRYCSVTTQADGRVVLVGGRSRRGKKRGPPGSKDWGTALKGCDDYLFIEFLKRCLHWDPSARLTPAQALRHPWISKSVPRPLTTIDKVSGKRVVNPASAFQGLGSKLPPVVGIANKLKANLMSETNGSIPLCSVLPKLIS
Sequence of PIM2 (Q9P1W9 whole entry): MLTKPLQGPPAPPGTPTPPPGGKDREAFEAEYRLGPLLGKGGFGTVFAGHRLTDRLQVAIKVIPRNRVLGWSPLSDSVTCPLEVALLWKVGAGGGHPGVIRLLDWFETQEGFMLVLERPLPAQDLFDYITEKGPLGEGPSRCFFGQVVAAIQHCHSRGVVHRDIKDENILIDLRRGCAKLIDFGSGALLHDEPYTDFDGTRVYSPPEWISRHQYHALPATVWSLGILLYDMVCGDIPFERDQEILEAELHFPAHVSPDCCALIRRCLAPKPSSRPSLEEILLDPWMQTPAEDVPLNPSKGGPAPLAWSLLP
Sequence of TTK (P33981 whole entry): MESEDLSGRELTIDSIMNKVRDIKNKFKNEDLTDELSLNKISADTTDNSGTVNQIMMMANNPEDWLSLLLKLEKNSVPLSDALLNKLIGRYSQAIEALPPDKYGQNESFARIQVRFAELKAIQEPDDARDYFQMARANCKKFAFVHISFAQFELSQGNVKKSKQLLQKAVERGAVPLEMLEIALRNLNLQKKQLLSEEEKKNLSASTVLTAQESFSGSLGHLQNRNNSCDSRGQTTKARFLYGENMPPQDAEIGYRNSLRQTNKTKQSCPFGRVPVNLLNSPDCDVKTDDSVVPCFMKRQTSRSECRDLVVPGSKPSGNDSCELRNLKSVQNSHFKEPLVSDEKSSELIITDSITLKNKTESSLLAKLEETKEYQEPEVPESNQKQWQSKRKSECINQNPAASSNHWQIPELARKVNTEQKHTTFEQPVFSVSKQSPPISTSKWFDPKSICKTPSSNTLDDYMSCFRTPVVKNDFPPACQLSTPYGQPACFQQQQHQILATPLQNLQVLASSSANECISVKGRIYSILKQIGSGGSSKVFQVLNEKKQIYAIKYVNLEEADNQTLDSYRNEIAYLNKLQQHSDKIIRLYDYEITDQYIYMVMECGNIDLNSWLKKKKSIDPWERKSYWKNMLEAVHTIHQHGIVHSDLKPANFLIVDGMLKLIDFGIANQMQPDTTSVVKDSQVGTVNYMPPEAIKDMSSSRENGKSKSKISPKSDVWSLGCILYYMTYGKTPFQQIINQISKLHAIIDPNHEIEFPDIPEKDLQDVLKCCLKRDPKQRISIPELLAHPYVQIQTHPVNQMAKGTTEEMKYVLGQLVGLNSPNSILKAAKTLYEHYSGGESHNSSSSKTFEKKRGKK

Structure (SMILES)	% activity remaining (NUAK1) [%]	% activity remaining (VEG-FR) [%]	% activity remaining (SIK2) [%]	% activity remaining (TrkA) [%]	% activity remaining (YES1) [%]	% activity remaining (MARK1) [%]	% activity remaining (TSSK1) [%]	% activity remaining (p38b MAPK) [%]	% activity remaining (PAK5) [%]	% activity remaining (PDGFRA) [%]	% activity remaining (RSK1) [%]	% activity remaining (TTK) [%]	% activity remaining (CK1γ2) [%]	% activity remaining (SGK1) [%]	% activity remaining (SRPK1) [%]	% activity remaining (PIM2) [%]	% activity remaining (ASK1) [%]	% activity remaining (IRAK4) [%]	% activity remaining (DYRK3) [%]	% activity remaining (MKK6) [%]	further results
CN1C2CC1CN(c1ccc(Nc3ncc4ccn(CC5CCOCC5)c4n3)cc1)C2 [Compound 24]	14	17	13	72	46	94	77	108	99	90	74	99	107	72	79	111	99	71	65	88	IC50 (VEG-FR; radiometric filter binding panel, read-out: VEG-FR pIC50 (converted)): 295 nM; SIK2 pIC50 (SIK2; [1]): 7.1 and 7.09
Cc1cc(=O)n(C2CCCC2)c2nc(Nc3ccc(N4CC5CC(C4)N5C)cc3)ncc12 [Compound 9]	5	71	44	12	13	56	56	91	64	57	41	54	34	96	111	99	97	100	74	84	IC50 (TrkA): 97.7 nM; TrkA pIC50 (TrkA; [1]): > 7; YES1 pIC50 (YES1; [1]): > 7; IC50 (YES1; radiometric filter binding panel, read-out: YES1 pIC50 (converted)): 75.9 nM; inhibition at 1 µM (MARK1; at 1 μM, radiometric filter binding assay, Dundee, read-out: MARK1 single point % inhibition): 44%
